From patent US20140079836A1, “METHODS AND COMPOSITIONS FOR ALTERING HEALTH, WELLBEING, AND LIFESPAN” (LifeSpan Extension, LLC, priority 2008, published 2014)

Legend:
[1] = tested on: genes involved in longevity (Array 1); assay: Custom RT-PCR microarray (Array 1) gene expression in skin fibroblasts, UVB/UVA1; format: cell-based, human; details: donor three IDE + UVB vs. Green tea + UVB Continuous Incubation; for PPC gene expression fold change / RTC gene expression fold change: control well
Protocol: Seeding of cells: On Day 1, each cell culture was seeded into 6 well cluster dishes at ˜1.5×10^5 cells in 4 mls medium per well. Three wells were seeded per test condition or control.
Experimental phase: On Day 3, wells were washed 1× with 2 mls medium, fed back 2 mls medium without fetal bovine serum and preincubated for 30-60 minutes before challenge with test or control conditions. After the preincubation, medium was aspirated from the wells and 2.5 mls of test or control condition in medium with 1% fetal bovine serum was pipetted into the appropriate wells.
(3) UVA1, UVB exposed and unexposed cells without test condition were used as controls. The experimental phase ended at 24 hours post UV exposure. Cells from each test and control parameter were then prepped for RNA isolation as described below.
UVB/UVA1 exposure: Cells exposed to UV received 200 mJ/cm^2 UVB/1 MED UVA1 using Thermo Oriel solar simulator model SP66923-3056. Cells were exposed from the bottom of the culture dish. The UV dose delivered to the cells was adjusted for interference from the plastic in the culture dish.
Preparation of RNA: The RNA was isolated using the Qiagen RNEasy Plus Mini Kit according to the manufacturer's protocol which can be found on the World Wilde Web at qiagen.com/literature/Defaultaspx?Term=&Language=EN&LiteratureType=4& ProductCategory=10162. The RNA was quantified and examined for purity using the 260/280 nm read method in a μ Quant spectrophotometer before use in the array.
Creation and Performance of a Custom Microarray (“Array 1”): Through the Custom Array design service of Superarray Bioscience Corporation, a 96 well RT-PCR microarray (“Array 1”) was developed to illustrate genetic responses in cells treated as above for specific genes involved in longevity as well as the relevant quality controls. The array was performed in compliance with manufacturer's guidelines and by recommended manufacturer's protocol as can be found on the World Wilde Web at superarray.com/Manual/perarrayplate.pdf
(§1) Custom Microarray Results: The results from the microarrays were determined using the delta CT method which uses comparisons of control genes and threshold cycles of genes of interest to generate relative expression values. The full set of experimental conditions was cross referenced and the data is provided herewith in DATA TABLE 3.
Preparation of RNA: The RNA was isolated using the Qiagen RNEasy Plus Mini Kit according to the manufacturer's protocol which can be found on the World Wide Web at qiagen.com/literature/Default. aspx?Term=&Language=EN&LiteratureType=4&ProductCategory=10162.
The RNA was quantified and examined for purity using the 260/280 nm read method in a μ Quant spectrophotometer before use in the array.
Creation and Performance of the Custom Microarray: Through the Custom Array design service of Superarray Bioscience Corporation, a 96 well RT-PCR Microarray was developed to illustrate genetic responses in cells treated as above for specific genes involved in longevity as well as the relevant quality controls. The array was performed in compliance with manufacturer's guidelines and by recommended manufacturer's protocol as can be found on the World Wide Web at superarray.com/Manual/perarrayplate.pdf.
as §1, with “4.” for “3.”
as §1, with “5. […]” for “3.”

[2] = tested on: custom array genes; assay: Chlorogenic acid challenge, custom RT-PCR microarray, dermal fibroblasts ag07999; format: cell-based, human; details: 24 hours
Protocol: Human dermal fibroblasts (ag07999) were seeded at near confluency in 6-well dishes in 4 ml MEM, 10% FBS/well. 24 hours after seeding, wells were aspirated and 3 ml chlorogenic acid dilution in MEM, 1% FBS added, or MEM, 1% FBS only for control wells. Chlorogenic acid (Acros Organics, Geel, Belgium) dilutions used were: 0.005%, 0.0005%, 0.00005%, 0.000005% and 0.0000005%. 24 hours after chlorogenic acid challenge, wells were aspirated, 1 ml trypsin-EDTA added to each well, swirled and aspirated. Trypsin-EDTA was again added to each well and cells retrieved with MEM 10% FBS when released from the substratum and centrifuged to a pellet.
RNA was collected from the harvested cells according to protocol using RT2 qPCR-Grade RNA Isolation Kit from SABiosciences Co. The RNA was then used to create cDNA (using a First Strand Synthesis Kit, SABiosciences, and following the manufacturer's instructions) and run on the BioRad iCycler RT-PCR machine using Custom RT-PCR Microarray (CAPH09464A, SABiosciences) (Array 1) and SYBR Green Reaction Mix (SABiosciences). Data from Example 16 are shown in FIG. 19; additional results are described and analyzed below.

COC1=C(OC)C(=O)C(CCCCCCCCCCO)=C(C)C1=O [IDE]
ACE gene expression fold change [1]: −1.13
ACTB gene expression fold change [1]: −2.17
APOE gene expression fold change [1]: 2.43
BAX gene expression fold change [1]: −1.01
BCL2 gene expression fold change [1]: 2.04
CASP2 gene expression fold change [1]: −1.96
CASP9 gene expression fold change [1]: 2.11
CCL4L1 gene expression fold change [1]: 16.91
CLK1 gene expression fold change [1]: 1.02
COX1 gene expression fold change [1]: 1.17
CREBBP gene expression fold change [1]: 1.49
CYP19A1 gene expression fold change [1]: 24.76
DDC gene expression fold change [1]: 58.89
GAPDH gene expression fold change [1]: −2.10
GH1 gene expression fold change [1]: 17.51
HIGX1A gene expression fold change [1]: 40.22
HLA-DRA gene expression fold change [1]: 65.34
HPRT1 gene expression fold change [1]: 1.30
HSPA1A gene expression fold change [1]: −1.54
HSPA1B gene expression fold change [1]: −2.03
HSPA1L gene expression fold change [1]: −1.39
IFI44 gene expression fold change [1]: 1.09
IGF1 gene expression fold change [1]: 4.23
IGF2 gene expression fold change [1]: −1.16
IL1A gene expression fold change [1]: 10.41
IL6 gene expression fold change [1]: −1.25
IL10 gene expression fold change [1]: 3.20
KRAS gene expression fold change [1]: 1.21
MAPK14 gene expression fold change [1]: −1.39
NADSYN1 gene expression fold change [1]: −2.33
NFKB1 gene expression fold change [1]: −1.13
NOS2A gene expression fold change [1]: 40.22
PARP1 gene expression fold change [1]: −2.68
PARP2 gene expression fold change [1]: 22.32
PPARG gene expression fold change [1]: 5.39
PTGS2 gene expression fold change [1]: 3.68
SHC1 gene expression fold change [1]: −1.54
SIRT1 gene expression fold change [1]: 1.39
SOD1 gene expression fold change [1]: −2.03
SOD2 gene expression fold change [1]: −1.13
TEP1 gene expression fold change [1]: 1.06
TERT gene expression fold change [1]: 3.56
TNF gene expression fold change [1]: 16.91
TP53 gene expression fold change [1]: 1.39
PPC gene expression fold change ([1]; entry r305): −1.48
RTC gene expression fold change ([1]; entry r306): 1.09
PPC gene expression fold change ([1]; entry r311): −1.77
RTC gene expression fold change ([1]; entry r312): −3.29

O=C(/C=C/c1ccc(O)c(O)c1)O[C@@H]1C[C@](O)(C(=O)O)C[C@@H](O)[C@H]1O [chlorogenic acid, -[[3-(3,4-Dihydroxyphenyl)-1-oxo-2-propenyl]oxy]-1,4,5-trihydroxycyclohexanecarboxylic acid]
IFI44 relative expression ([2]; FIG. 17): may significantly decrease expression
expression of genes in the mitochondrial function/biogenesis pathway ([2]; FIG. 21a): primarily decreases gene expression
PTGS2 relative expression ([2]; at higher concentrations, FIG. 16): significant decrease in PTGS2 gene expression
NOS2A relative expression ([2]; increasing concentrations, FIG. 13): biphasic response
SIRT1 relative expression ([2]; increasing concentrations, FIG. 14): entirely decreasing expression
CCL4L1 relative expression ([2]; middle dosage (0.00005%), FIG. 11): marked repression
